{"source": "patent US20050229276A1", "about": "“Method of producing cyclamen root tuber and method of proliferating cyclamen using the same” (Tokyo University of Agricultural, priority 2002, published 2005)", "key": {"[1]": {"test_system": "cyclamen (cultivar: Dressy Scarlet) seedling", "assay": "Growth of root tubers at cut root ends of seedlings in solid media", "type": "in vivo", "protocol": "A cyclamen (cultivar: Dressy Scarlet) seed was immersed in an ethyl alcohol aqueous solution having an ethyl alcohol concentration of 70 wt % for 10 seconds and in a sodium hypochlorite solution having an effective chlorine concentration of 1 wt % for 10 minutes to sterilize the surface of the seed. Thereafter, this seed was washed in sterilized water 3 times to remove the sodium hypochlorite from the surface of the seed. This was sown in an MS solid medium containing 30 g/l of sucrose and 6 g/l of agar under a germ-free condition and cultured at a temperature of 20° C. under weak light for 30 days to be germinated and rooted.\nThe end portions of the roots of the above germinated and rooted cyclamen seedling were cut off with a scalpel, and the seedling was planted in the following solid media. As the media, a large number of experimental plots were prepared by adding NAA and BA as phytohormones to the ⅓ MS medium in concentrations shown in Tables 1 to 3 and further adding 30 to 90 g/l of sucrose. 6 g/l of agar was added to all of the media which were then sterilized in an autoclave to prepare media having a pH of 7.0. 10 ml of each of the solid media was placed in a 50 ml culture test tube. The stationary culture of the seedling planted in each of the media was carried out at 20° C. under weak light for a certain number of days to grow root tubers at the end portions of its roots."}, "[2]": {"test_system": "explants from petioles of cyclamen (species: Flamenco)", "assay": "Culture of explants from petioles (comparative)", "type": "cell-based", "details": "NAA 0.05 mg/l, 20 explants planted, 30 days", "protocol": "For comparison, the explants from leaves and petioles of cyclamen (species: Flamenco) were cultured for 30 days by changing the contents of BA and sucrose in a basal medium prepared by adding 0.05 mg/l of NAA and 6 g/l of agar to the ⅓ MS medium and having a pH of 7.0. In all the cases, the root tubers were hardly enlarged by culture and rarely regenerated and accordingly, a clonal plant could not be obtained with high reproducibility."}, "[3]": {"details": "sucrose 50 g/l, BA 10.0 mg/l, NAA 0.05 mg/l, 30-th day"}, "[4]": {"details": "sucrose 70 g/l, BA 0.1 mg/l, NAA 0.01 mg/l, 30-th day"}, "[5]": {"details": "sucrose 70 g/l, BA 0.1 mg/l, NAA 0.05 mg/l, 30-th day"}, "[6]": {"details": "sucrose 70 g/l, BA 1.0 mg/l, NAA 0.00 mg/l, 30-th day"}, "[7]": {"details": "sucrose 70 g/l, BA 1.0 mg/l, NAA 0.01 mg/l, 30-th day"}, "[8]": {"details": "sucrose 70 g/l, BA 1.0 mg/l, NAA 0.05 mg/l, 30-th day"}, "[9]": {"details": "sucrose 70 g/l, BA 10.0 mg/l, NAA 0.00 mg/l, 30-th day"}, "[10]": {"details": "sucrose 70 g/l, BA 10.0 mg/l, NAA 0.01 mg/l, 30-th day"}, "[11]": {"details": "sucrose 70 g/l, BA 10.0 mg/l, NAA 0.05 mg/l, 30-th day"}}}
{"smiles": "c1ccc(CNc2ncnc3[nH]cnc23)cc1", "note": "[BA, benzylaminopurine]", "values": [{"measurement": "Number of large root tubers (diameter of 1 mm or more)", "setting": "[1]; [3]", "value": 4}, {"measurement": "Total number of root tubers", "setting": "[1]; [3]", "value": 8}, {"measurement": "Number of large root tubers (diameter of 1 mm or more)", "setting": "[1]; [4]", "value": 4}, {"measurement": "Total number of root tubers", "setting": "[1]; [4]", "value": 8}, {"measurement": "Average number of root tubers (per a seedling)", "setting": "[1]; [5]", "value": 4.4}, {"measurement": "Number of large root tubers (diameter of 1 mm or more)", "setting": "[1]; [5]", "value": 12}, {"measurement": "Total number of root tubers", "setting": "[1]; [5]", "value": 14}, {"measurement": "Average number of root tubers (per a seedling)", "setting": "[1]; sucrose 70 g/l, BA 0.1 mg/l, NAA 0.05 mg/l, 50-th day", "value": 4.4}, {"measurement": "Number of large root tubers (diameter of 1 mm or more)", "setting": "[1]; [6]", "value": 11}, {"measurement": "Total number of root tubers", "setting": "[1]; [6]", "value": 16}, {"measurement": "Number of large root tubers (diameter of 1 mm or more)", "setting": "[1]; [7]", "value": 11}, {"measurement": "Total number of root tubers", "setting": "[1]; [7]", "value": 19}, {"measurement": "Average number of root tubers (per a seedling)", "setting": "[1]; [8]", "value": 0.8}, {"measurement": "Number of large root tubers (diameter of 1 mm or more)", "setting": "[1]; [8]", "value": 9}, {"measurement": "Total number of root tubers", "setting": "[1]; [8]", "value": 11}, {"measurement": "Average number of root tubers (per a seedling)", "setting": "[1]; sucrose 70 g/l, BA 1.0 mg/l, NAA 0.05 mg/l, 50-th day", "value": 0.8}, {"measurement": "Average number of root tubers (per a seedling)", "setting": "[1]; sucrose 70 g/l, BA 2.0 mg/l, NAA 0.05 mg/l, 30-th day", "value": 3.2}, {"measurement": "Average number of root tubers (per a seedling)", "setting": "[1]; sucrose 70 g/l, BA 2.0 mg/l, NAA 0.05 mg/l, 50-th day", "value": 3.2}, {"measurement": "Average number of root tubers (per a seedling)", "setting": "[1]; sucrose 70 g/l, BA 5.0 mg/l, NAA 0.05 mg/l, 30-th day", "value": 1.0}, {"measurement": "Average number of root tubers (per a seedling)", "setting": "[1]; sucrose 70 g/l, BA 5.0 mg/l, NAA 0.05 mg/l, 50-th day", "value": 1.0}, {"measurement": "Number of large root tubers (diameter of 1 mm or more)", "setting": "[1]; [9]", "value": 3}, {"measurement": "Total number of root tubers", "setting": "[1]; [9]", "value": 3}, {"measurement": "Number of large root tubers (diameter of 1 mm or more)", "setting": "[1]; [10]", "value": 3}, {"measurement": "Total number of root tubers", "setting": "[1]; [10]", "value": 3}, {"measurement": "Number of large root tubers (diameter of 1 mm or more)", "setting": "[1]; [11]", "value": 8}, {"measurement": "Total number of root tubers", "setting": "[1]; [11]", "value": 14}, {"measurement": "Average number of root tubers (per a seedling)", "setting": "[1]; sucrose 90 g/l, BA 0.1 mg/l, NAA 0.05 mg/l, 30-th day", "value": 2.4}, {"measurement": "Average number of root tubers (per a seedling)", "setting": "[1]; sucrose 90 g/l, BA 0.1 mg/l, NAA 0.05 mg/l, 50-th day", "value": 2.4}, {"measurement": "Average number of root tubers (per a seedling)", "setting": "[1]; sucrose 90 g/l, BA 1.0 mg/l, NAA 0.05 mg/l, 30-th day", "value": 1.6}, {"measurement": "Average number of root tubers (per a seedling)", "setting": "[1]; sucrose 90 g/l, BA 1.0 mg/l, NAA 0.05 mg/l, 50-th day", "value": 1.6}, {"measurement": "Average number of root tubers (per a seedling)", "setting": "[1]; sucrose 90 g/l, BA 2.0 mg/l, NAA 0.05 mg/l, 30-th day", "value": 1.0}, {"measurement": "Average number of root tubers (per a seedling)", "setting": "[1]; sucrose 90 g/l, BA 2.0 mg/l, NAA 0.05 mg/l, 50-th day", "value": 1.0}, {"measurement": "Average number of root tubers (per a seedling)", "setting": "[1]; sucrose 90 g/l, BA 5.0 mg/l, NAA 0.05 mg/l, 30-th day", "value": 0.8}, {"measurement": "Average number of root tubers (per a seedling)", "setting": "[1]; sucrose 90 g/l, BA 5.0 mg/l, NAA 0.05 mg/l, 50-th day", "value": 0.8}, {"measurement": "Number of enlarged explants", "setting": "[2]; BA 0.05 mg/l, sucrose 30 g/m", "value": 2}, {"measurement": "Number of regenerate explants", "setting": "[2]; BA 0.05 mg/l, sucrose 30 g/m", "value": 0}, {"measurement": "Number of enlarged explants", "setting": "[2]; BA 0.05 mg/l, sucrose 50 g/m", "value": 1}, {"measurement": "Number of regenerate explants", "setting": "[2]; BA 0.05 mg/l, sucrose 50 g/m", "value": 0}, {"measurement": "Number of enlarged explants", "setting": "[2]; BA 0.05 mg/l, sucrose 70 g/m", "value": 1}, {"measurement": "Number of regenerate explants", "setting": "[2]; BA 0.05 mg/l, sucrose 70 g/m", "value": 0}, {"measurement": "Number of enlarged explants", "setting": "[2]; BA 0.05 mg/l, sucrose 90 g/m", "value": 0}, {"measurement": "Number of regenerate explants", "setting": "[2]; BA 0.05 mg/l, sucrose 90 g/m", "value": 0}, {"measurement": "Number of enlarged explants", "setting": "[2]; BA 0.1 mg/l, sucrose 30 g/m", "value": 4}, {"measurement": "Number of regenerate explants", "setting": "[2]; BA 0.1 mg/l, sucrose 30 g/m", "value": 4}, {"measurement": "Number of enlarged explants", "setting": "[2]; BA 0.1 mg/l, sucrose 50 g/m", "value": 5}, {"measurement": "Number of regenerate explants", "setting": "[2]; BA 0.1 mg/l, sucrose 50 g/m", "value": 1}, {"measurement": "Number of enlarged explants", "setting": "[2]; BA 0.1 mg/l, sucrose 70 g/m", "value": 2}, {"measurement": "Number of regenerate explants", "setting": "[2]; BA 0.1 mg/l, sucrose 70 g/m", "value": 0}, {"measurement": "Number of enlarged explants", "setting": "[2]; BA 0.1 mg/l, sucrose 90 g/m", "value": 1}, {"measurement": "Number of regenerate explants", "setting": "[2]; BA 0.1 mg/l, sucrose 90 g/m", "value": 0}, {"measurement": "Number of enlarged explants", "setting": "[2]; BA 0.5 mg/l, sucrose 30 g/m", "value": 3}, {"measurement": "Number of regenerate explants", "setting": "[2]; BA 0.5 mg/l, sucrose 30 g/m", "value": 1}, {"measurement": "Number of enlarged explants", "setting": "[2]; BA 0.5 mg/l, sucrose 50 g/m", "value": 4}, {"measurement": "Number of regenerate explants", "setting": "[2]; BA 0.5 mg/l, sucrose 50 g/m", "value": 1}, {"measurement": "Number of enlarged explants", "setting": "[2]; BA 0.5 mg/l, sucrose 70 g/m", "value": 1}, {"measurement": "Number of regenerate explants", "setting": "[2]; BA 0.5 mg/l, sucrose 70 g/m", "value": 0}, {"measurement": "Number of enlarged explants", "setting": "[2]; BA 0.5 mg/l, sucrose 90 g/m", "value": 0}, {"measurement": "Number of regenerate explants", "setting": "[2]; BA 0.5 mg/l, sucrose 90 g/m", "value": 0}, {"measurement": "Number of enlarged explants", "setting": "[2]; BA 1 mg/l, sucrose 30 g/m", "value": 1}, {"measurement": "Number of regenerate explants", "setting": "[2]; BA 1 mg/l, sucrose 30 g/m", "value": 0}, {"measurement": "Number of enlarged explants", "setting": "[2]; BA 1 mg/l, sucrose 50 g/m", "value": 1}, {"measurement": "Number of regenerate explants", "setting": "[2]; BA 1 mg/l, sucrose 50 g/m", "value": 10}, {"measurement": "Number of enlarged explants", "setting": "[2]; BA 1 mg/l, sucrose 70 g/m", "value": 0}, {"measurement": "Number of regenerate explants", "setting": "[2]; BA 1 mg/l, sucrose 70 g/m", "value": 0}, {"measurement": "Number of enlarged explants", "setting": "[2]; BA 1 mg/l, sucrose 90 g/m", "value": 0}, {"measurement": "Number of regenerate explants", "setting": "[2]; BA 1 mg/l, sucrose 90 g/m", "value": 0}]}
